# Results as given in US8350028B2, “2-aminoquinolines” (Hofmann-La Roche Inc., priority 2008, dated 2013).
# Target: T1, recombinant human 5-HT5A receptor (Homo sapiens, UniProt P47898)
# T1 construct: expressed in transfected cells; host or cells: HEK-EBNA (Human Embryonic Kidney-EBNA) cells, transient cDNA expression; membranes
# Test: [3H]LSD radioligand binding assay
# Settings: [3H]LSD (approximately 1 nM); membranes from HEK-EBNA cells transiently expressing 5-HT5A receptors; Ki calculated from IC50 using the Cheng-Prussoff equation
# Protocol: A [^3H]LSD radioligand binding assay was used to determine the affinity of the compounds for the recombinant human 5-HT5A receptor, in membranes from transiently (cDNA) expressed 5-HT5A receptors in Human Embryonic Kidney-EBNA (HEK-EBNA) cells. Assay buffer consisted of Tris (50 mM) buffer containing 1 mM EGTA, 10 mM MgCl2 (pH 7.4) and 10 μM pargyline. The binding assay was carried out in 96-well-plates in the presence of [^3H]LSD (approximately 1 nM), approximately 2 μg/well of membrane protein, and 0.5 mg of Ysi-poly-1-lysine SPA beads in a final volume of 200 μl of buffer. Non-specific binding was defined using methiothepin 2 μM. Compounds were tested at 10 concentrations. All assays were conducted in duplicate and repeated at least two times. Assay plates were incubated for 120 min at room temperature before centrifugation. Bound ligand was determined using a Packard Topcount scintillation counter. IC50 values were calculated using a non-linear curve fitting program and Ki values calculated using the Cheng-Prussoff equation.
# T1 sequence (P47898 whole entry): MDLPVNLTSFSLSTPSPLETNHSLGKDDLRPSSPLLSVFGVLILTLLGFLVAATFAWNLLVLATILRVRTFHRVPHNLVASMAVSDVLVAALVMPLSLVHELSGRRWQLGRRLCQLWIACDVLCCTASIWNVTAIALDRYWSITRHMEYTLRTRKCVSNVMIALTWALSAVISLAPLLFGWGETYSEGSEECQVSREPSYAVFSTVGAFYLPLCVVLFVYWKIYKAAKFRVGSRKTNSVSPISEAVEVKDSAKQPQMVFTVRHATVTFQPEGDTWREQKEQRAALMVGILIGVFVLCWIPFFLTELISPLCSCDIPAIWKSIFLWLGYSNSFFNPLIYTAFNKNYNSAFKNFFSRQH
row,Ki [nM],Structure (SMILES)
1,17.1,"COc1ccccc1CNc1ccc2cc(NS(=O)(=O)N(C)C)ccc2n1 [Example 10, N′-{2-[(2-methoxybenzyl)amino]quinolin-6-yl}-N,N-dimethylsulfamide]"
2,3.3,"COc1ccccc1CNc1ccc2cc(NC(=O)NC(C)C)ccc2n1 [Example 14, 1-Isopropyl-3-[2-(2-methoxy-benzylamino)-quinolin-6-yl]-urea]"
3,2.7,"COc1ccccc1CNc1ccc2cc(NC(=O)NC3CCN(C)CC3)ccc2n1 [Example 17, 1-[2-(2-Methoxy-benzylamino)-quinolin-6-yl]-3-(1-methyl-piperidin-4-yl)-urea]"
4,49.5,"COc1ccc(CNc2ccc3cc(NC(=O)NC(C)C)ccc3n2)cc1 [Example 18, 1-Isopropyl-3-[2-(4-methoxy-benzylamino)-quinolin-6-yl]-urea]"
5,8,"COc1ccccc1CNc1ccc2cc(NS(=O)(=O)N3C[C@@H]4C[C@H]3CO4)ccc2n1 [Example 19, (1S,4S)-2-Oxa-5-aza-bicyclo[2.2.1]heptane-5-sulfonic acid [2-(2-methoxy-benzylamino)-quinolin-6-yl]-amide]"
6,26.8,"COc1ccccc1CNc1ccc2cc(NS(=O)(=O)NC3CC3)ccc2n1 [Example 20, N-cyclopropyl-N′-{2-[(2-methoxybenzyl)amino]quinolin-6-yl}sulfamide]"
7,27.4,"Cc1ccc(CNc2ccc3cc(NC(=O)NC(C)C)ccc3n2)o1 [Example 21, 1-Isopropyl-3-{2-[(5-methyl-furan-2-ylmethyl)-amino]-quinolin-6-yl}-urea]"
8,6.4,"COCCN1CCC(NC(=O)Nc2ccc3nc(NCc4ccccc4OC)ccc3c2)CC1 [Example 23, 1-[2-(2-Methoxy-benzylamino)-quinolin-6-yl]-3-[1-(2-methoxy-ethyl)-piperidin-4-yl]-urea]"
9,8.4,"COc1ccccc1CNc1ccc2cc(NC(=O)NC3CCN(CCF)CC3)ccc2n1 [Example 24, 1-[1-(2-Fluoro-ethyl)-piperidin-4-yl]-3-[2-(2-methoxy-benzylamino)-quinolin-6-yl]-urea]"
10,6.7,"COc1ccccc1CNc1ccc2cc(NC(=O)NC3CCN(C(C)C)CC3)ccc2n1 [Example 25, 1-(1-Isopropyl-piperidin-4-yl)-3-[2-(2-methoxy-benzylamino)-quinolin-6-yl]-urea]"
11,36.2,COc1ccccc1CNc1ccc2cc(NC(=O)NC3CCN(C(=O)CC(F)(F)F)CC3)ccc2n1 [Example 26]
12,6.8,"COc1ccccc1CNc1ccc2cc(NC(=O)NC3CCN(C4CC4)CC3)ccc2n1 [Example 28, 1-(1-Cyclopropyl-piperidin-4-yl)-3-[2-(2-methoxy-benzylamino)-quinolin-6-yl]-urea]"
13,12.5,"Cc1ccc(CNc2ccc3cc(NC(=O)NC4CCN(C)CC4)ccc3n2)o1 [Example 29, 1-{2-[(5-Methyl-furan-2-ylmethyl)-amino]-quinolin-6-yl}-3-(1-methyl-piperidin-4-yl)-urea]"
14,5.9,"COc1ccccc1CNc1ccc2cc(NC(=O)NC3CCN(CCSC)CC3)ccc2n1 [Example 30, 1-[2-(2-Methoxy-benzylamino)-quinolin-6-yl]-3-[1-(2-methylsulfanyl-ethyl)-piperidin-4-yl]-urea]"
15,20.4,"COCC(=O)N1CCC(NC(=O)Nc2ccc3nc(NCc4ccccc4OC)ccc3c2)CC1 [Example 31, 1-[1-(2-Methoxy-acetyl)-piperidin-4-yl]-3-[2-(2-methoxy-benzylamino)-quinolin-6-yl]-urea]"
16,6.5,"COc1ccccc1CNc1ccc2cc(NC(=O)C3CC3)ccc2n1 [Example 32, Cyclopropanecarboxylic acid [2-(2-methoxy-benzylamino)-quinolin-6-yl]-amide]"
17,33,"COc1ccccc1CNc1ccc2cc(NC(=O)CN3CCN(C)CC3)ccc2n1 [Example 33, N-[2-(2-Methoxy-benzylamino)-quinolin-6-yl]-2-(4-methyl-piperazin-1-yl)-acetamide]"

row,Structure (SMILES),Ki [nM]
1,"COc1ccccc1CNc1ccc2cc(NC(=O)NC3CCN(C(=O)CF)CC3)ccc2n1 [Example 27, 1-[1-(2-Fluoro-acetyl)-piperidin-4-yl]-3-[2-(2-methoxy-benzylamino)-quinolin-6-yl]-urea]",15.7
